# Results as given in BindingDB's records for doi:10.1016/j.bmcl.2011.09.133 (Genzyme, 2011).
# Experiment: Antagonist activity against human CCR5 assessed as inhibition of HIV1 gp120-induced cell-cell fusion between human HeLa P4/R5 cells and CHO-tat10 cells expressing HIV-1JRFL viral envolop protein after 20 hrs by beta-galactosidase reporter gene assay
row,SMILES,IC50 [nM]
1,COc1ccc(N(Cc2cnccc2C)C2CCN([C@H](C)CCNC(=O)c3c(C)cc(Cl)nc3C)CC2)cc1,0.2
2,CC(CCNC(=O)c1c(Cl)cncc1Cl)N1CCC(N(Cc2cccc(C#N)c2)c2ccc(C#N)cc2)CC1 (stereo unspecified),12
3,COc1ccc(N(Cc2cnccc2C)C2CCN([C@H](C)CCNC(=O)c3cnc(Cl)cc3C)CC2)cc1,12.3
4,Cc1ccncc1CN(c1ccc(N2CCOCC2)cc1)C1CCN([C@H](C)CCNC(=O)c2c(C)cc(Cl)nc2C)CC1,1590
5,COc1ccc(N(Cc2cnccc2C)C2CCN([C@H](C)CCNC(=O)c3c(C)cc(F)nc3C)CC2)cc1,0.3
6,"CC(CCNC(=O)c1c(Cl)cncc1Cl)N1CCC(N(Cc2ccccc2)c2ccc(Br)cc2)CC1 (stereo unspecified) [N-(3-(4-(benzyl(4-bromophenyl)amino)piperidin-1-yl)butyl)-3,5-dichloroisonicotinamide]",49
7,COc1ccc(N(Cc2cccc(C#N)n2)C2CCN([C@H](C)CCNC(=O)c3c(C)cc(C#N)nc3C)CC2)cc1,0.3
8,COc1ccc(N(Cc2cnccc2C)C2CCN([C@H](C)CCNC(=O)c3c(C)ccnc3C)CC2)cc1,2.4
9,COc1cccc(CN(c2ccc(Br)cc2)C2CCN(C(C)CCNC(=O)c3c(Cl)cncc3Cl)CC2)c1 (stereo unspecified),387
10,COc1ccc(N(Cc2cnccc2C)C2CCN([C@H](C)CCNC(=O)c3c(C)cncc3C)CC2)cc1,7
11,COc1ccc(N(Cc2cccc(C#N)n2)C2CCN([C@H](C)CCNC(=O)c3c(C)cc(Cl)nc3C)CC2)cc1,0.3
12,CC(CCNC(=O)c1c(Cl)cncc1Cl)N1CCC(N(Cc2cccc(C#N)c2)c2ccc(OC(F)(F)F)cc2)CC1 (stereo unspecified),3
13,CC(CCNC(=O)c1c(Cl)cncc1Cl)N1CCC(N(Cc2cccc(Cl)c2)c2ccc(Br)cc2)CC1 (stereo unspecified),30
14,Cc1ccncc1CN(c1ccc(OCC(N)=O)cc1)C1CCN([C@H](C)CCNC(=O)c2c(C)cc(C#N)nc2C)CC1,0.98
15,COc1ccc(N(Cc2cccnc2)C2CCN([C@H](C)CCNC(=O)c3c(C)cc(Cl)nc3C)CC2)cc1,1.5
16,COCCOc1ccc(N(Cc2cnccc2C)C2CCN([C@H](C)CCNC(=O)c3c(C)cc(C#N)nc3C)CC2)cc1,0.8
17,COc1ccc(N(Cc2ccccc2)C2CCN(C(C)CCNC(=O)c3c(Cl)cncc3Cl)CC2)cc1 (stereo unspecified),50
18,Cc1ccncc1CN(c1ccc([S+](C)[O-])cc1)C1CCN([C@H](C)CCNC(=O)c2c(C)ncnc2C)CC1 (stereo partly specified),130

row,SMILES,IC50 [nM]
1,COC(=O)c1ccc(N(Cc2ccccc2)C2CCN(C(C)CCNC(=O)c3c(Cl)cncc3Cl)CC2)cc1 (stereo unspecified),90
2,COCCOc1ccc(N(Cc2cnccc2C)C2CCN([C@H](C)CCNC(=O)c3c(C)cc(Cl)nc3C)CC2)cc1,0.6
3,COc1ccc(N(Cc2cnccc2C)C2CCN([C@H](C)CCNC(=O)c3c(C)cc(C#N)nc3C)CC2)cc1,0.3
4,CC(CCNC(=O)c1c(Cl)cncc1Cl)N1CCC(N(Cc2cccc(C#N)c2)c2ccc(C(F)(F)F)cc2)CC1 (stereo unspecified),3
5,CC(CCNC(=O)c1c(Cl)cncc1Cl)N1CCC(N(Cc2ccccc2)c2ccc(C#N)cc2)CC1 (stereo unspecified),19
6,COc1ccc(N(Cc2cccc(C#N)n2)C2CCN([C@H](C)CCNC(=O)c3c(C)cc(F)nc3C)CC2)cc1,0.7
7,COc1ccc(N(Cc2cnccc2C)C2CCN([C@H](C)CCNC(=O)c3c(C)ccnc3Cl)CC2)cc1,0.7
8,COc1ccc(N(Cc2cccnc2)C2CCN([C@H](C)CCNC(=O)c3c(C)cc(F)nc3C)CC2)cc1,1.6
9,CC(CCNC(=O)c1c(Cl)cncc1Cl)N1CCC(N(Cc2ccccc2)c2ccc(Oc3ccc(C(=O)O)cc3)cc2)CC1 (stereo unspecified),11
10,CC(CCNC(=O)c1c(Cl)cncc1Cl)N1CCC(N(Cc2ccccc2)c2ccc(OC(F)(F)F)cc2)CC1 (stereo unspecified),26
11,COc1ccc(N(Cc2cnccc2C)C2CCN([C@@H](C)CCNC(=O)c3c(C)cc(Cl)nc3C)CC2)cc1,40
12,COCCOc1ccc(N(Cc2cnccc2C)C2CCN([C@H](C)CCNC(=O)c3c(C)cc(F)nc3C)CC2)cc1,1.3
13,Cc1ccncc1CN(c1ccccc1)C1CCN([C@H](C)CCNC(=O)c2c(C)cc(C#N)nc2C)CC1,7
14,COc1ccc(N(Cc2cccc(C#N)c2)C2CCN(C(C)CCNC(=O)c3c(Cl)cncc3Cl)CC2)cc1 (stereo unspecified),2
15,CC(CCNC(=O)c1c(Cl)cncc1Cl)N1CCC(N(Cc2ccccc2)c2ccc(C(=O)N(C)C)cc2)CC1 (stereo unspecified),116
16,COc1ccc(N(Cc2cnccc2C)C2CCN([C@H](C)CCNC(=O)c3c(C)cc(C(=O)NC(C)C)nc3C)CC2)cc1,0.09
17,CC(CCNC(=O)c1c(Cl)cncc1Cl)N1CCC(N(Cc2ccccc2)c2ccc(C(F)(F)F)cc2)CC1 (stereo unspecified),34
18,CC(CCNC(=O)c1c(Cl)cncc1Cl)N1CCC(N(Cc2cccc(C#N)c2)c2ccc(Br)cc2)CC1 (stereo unspecified),8
